28 compounds from patent US9670157B2, “Benzylamine derivatives” (KALVISTA PHARMACEUTICALS LIMITED, priority 2013, dated 2017) can be followed below.

Like-named read-outs stand apart in the source and are kept apart here.

The target in one assay is Human plasma kallikrein (Homo sapiens (Human), UniProt P03952). The assay is described as follows: Determination of the IC50 for Plasma Kallikrein. The format is biochemical. Conditions: read-out: IC50 (human PKal). As to the method: Human plasma kallikrein (Protogen) was incubated at 37° C. with the fluorogenic substrate H-DPro-Phe-Arg-AFC and various concentrations of the test compound. Residual enzyme activity (initial rate of reaction) was determined by measuring the change in optical absorbance at 410 nm and the IC50 value for the test compound was determined.

Another assay deals with Human KLK1 (Homo sapiens (Human), UniProt P06870). The assay is described as follows: Determination of the IC50 for KLK1. The format is biochemical. Conditions: 37° C., fluorogenic substrate H-DVal-Leu-Arg-AFC. As to the method:
KLK1 inhibitory activity in vitro was determined using standard published methods (see e.g. Johansen et al., Int. J. Tiss. Reac. 1986, 8, 185; Shori et al., Biochem. Pharmacol., 1992, 43, 1209; Stürzebecher et al., Biol. Chem. Hoppe-Seyler, 1992, 373, 1025). Human KLK1 (Callbiochem) was incubated at 37° C. with the fluorogenic substrate H-DVal-Leu-Arg-AFC and various concentrations of the test compound. Residual enzyme activity (initial rate of reaction) was determined by measuring the change in optical absorbance at 410 nm and the IC50 value for the test compound was determined.

Setting [1] is: 37° C., fluorogenic substrate H-DPro-Phe-Arg-AFC.

Sequence of Human KLK1 (P06870 25-262): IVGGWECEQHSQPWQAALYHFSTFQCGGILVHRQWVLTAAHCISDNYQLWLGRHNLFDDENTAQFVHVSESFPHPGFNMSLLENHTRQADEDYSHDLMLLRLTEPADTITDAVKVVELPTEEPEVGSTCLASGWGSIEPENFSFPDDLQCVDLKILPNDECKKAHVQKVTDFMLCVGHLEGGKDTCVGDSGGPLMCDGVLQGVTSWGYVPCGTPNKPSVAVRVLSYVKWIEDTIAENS
Sequence of Human plasma kallikrein (P03952 391-638): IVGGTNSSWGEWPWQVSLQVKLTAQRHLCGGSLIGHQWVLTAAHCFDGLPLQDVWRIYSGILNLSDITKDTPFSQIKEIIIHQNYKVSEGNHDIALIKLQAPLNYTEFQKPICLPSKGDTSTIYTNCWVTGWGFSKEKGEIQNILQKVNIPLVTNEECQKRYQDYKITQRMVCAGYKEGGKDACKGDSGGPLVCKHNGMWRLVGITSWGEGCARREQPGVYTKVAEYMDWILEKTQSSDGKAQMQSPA
Sequence of Human plasma kallikrein (P03952 20-390 partner): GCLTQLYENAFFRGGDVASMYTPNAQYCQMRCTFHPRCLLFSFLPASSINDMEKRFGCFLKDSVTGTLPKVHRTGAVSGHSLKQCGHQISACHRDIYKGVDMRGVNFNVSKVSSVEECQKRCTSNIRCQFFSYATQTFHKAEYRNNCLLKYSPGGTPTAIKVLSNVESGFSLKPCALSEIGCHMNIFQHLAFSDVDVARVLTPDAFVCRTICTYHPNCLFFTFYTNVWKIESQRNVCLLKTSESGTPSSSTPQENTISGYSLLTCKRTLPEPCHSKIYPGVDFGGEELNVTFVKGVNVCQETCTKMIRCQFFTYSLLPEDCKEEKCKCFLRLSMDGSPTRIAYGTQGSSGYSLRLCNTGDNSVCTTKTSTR

As a reminder, the IC50 is the concentration that inhibits the measured activity by half. Take `Cc1cc(C(=O)NCc2ccc(CN)cc2)c(C)n1Cc1ccc(CN)cc1` [Example 67, 1-(4-Aminomethyl-benzyl)-2,5-dimethyl-1H-pyrrole-3-carboxylic acid 4-aminomethyl-benzylamide]: the figures for the IC50 on Human plasma kallikrein (setting [1]) and at Human KLK1 were 3500 nM and 6970 nM, respectively.

Turning to `Cc1cnn(Cc2ccc(Cn3c(C)cc(C(=O)NCc4ccc(CN)cc4)c3C)cc2)c1` [Example 96, 2,5-Dimethyl-1-[4-(4-methyl-pyrazol-1-ylmethyl)-benzyl]-1H-pyrrole-3-carboxylic acid 4-aminomethyl-benzylamide], the half-inhibitory concentration (IC50) on Human plasma kallikrein (setting [1]) is 63 nM; against Human KLK1, greater than 10000 nM.

Turning to `Cc1cnn(Cc2ccc(Cn3cc(C(=O)NCc4ccc(CN)cc4)cn3)cc2)c1` [Example 85, 1-[4-(4-Methyl-pyrazol-1-ylmethyl)-benzyl]-1H-pyrazole-4-carboxylic acid 4-aminomethyl-benzylamide], the IC50 at Human plasma kallikrein is 11 nM; at Human KLK1, greater than 8510 nM.

As for `Cc1cc(C(=O)NCc2ccc(CN)cc2)c(C)n1Cc1csc(-c2ccncc2)n1` [Example 32, 2,5-Dimethyl-1-(2-pyridin-4-yl-thiazol-4-ylmethyl)-1H-pyrrole-3-carboxylic acid 4-aminomethyl-benzylamide], the IC50 at Human plasma kallikrein (setting [1]) was 732 nM; against Human KLK1 it was greater than 10000 nM.

Turning to `Cc1cnn(Cc2ccc(Cn3cc(C(=O)NCc4ccc(CN)cc4C)nn3)cc2)c1` [Example 109, 1-[4-(4-Methyl-pyrazol-1-ylmethyl)-benzyl]-1H-[1,2,3]triazole-4-carboxylic acid 4-aminomethyl-2-methyl-benzylamide], the IC50 on Human plasma kallikrein (setting [1]) is 5 nM; against Human KLK1, greater than 10000 nM.

Turning to `Cc1cnn(Cc2ccc(Cn3cc(C(=O)NCc4ccc(CN)cc4C)cn3)cc2)c1` [Example 106, 1-[4-(4-Methyl-pyrazol-1-ylmethyl)-benzyl]-1H-pyrazole-4-carboxylic acid 4-aminomethyl-2-methyl-benzylamide], the IC50 was 2 nM at Human plasma kallikrein (setting [1]) and greater than 10000 nM at Human KLK1.

On to `Cc1cnn(Cc2ccc(Cn3cnc(C(=O)NCc4ccc(CN)cc4)c3)cc2)c1` [Example 104, 1-[4-(4-Methyl-pyrazol-1-ylmethyl)-benzyl]-1H-imidazole-4-carboxylic acid 4-aminomethyl-benzylamide], for which the values for the IC50 on Human plasma kallikrein (setting [1]) and against Human KLK1 were 30 nM and greater than 10000 nM, respectively.

As for `CCn1c(C(=O)NCc2c(C)cc(CN)cc2C)cc(C)c1Cc1ccc(Cn2cc(C)cn2)cc1` [Example 102, 1-Ethyl-4-methyl-5-[4-(4-methyl-pyrazol-1-ylmethyl)-benzyl]-1H-pyrrole-2-carboxylic acid 4-aminomethyl-2,6-dimethyl-benzylamide], the IC50 was found to be 11 nM at Human plasma kallikrein (setting [1]) and 4270 nM at Human KLK1.

Consider `Cc1cc(C(=O)NCc2ccc(CN)cc2)c(C)n1Cc1csc(-c2ccccc2)c1` [Example 10, 2,5-Dimethyl-1-(5-phenyl-thiophen-3-ylmethyl)-1H-pyrrole-3-carboxylic acid 4-aminomethyl-benzylamide], for which the IC50 was 571 nM at Human plasma kallikrein (setting [1]) and greater than 10000 nM against Human KLK1.

For the compound `Cc1cc(CN)cc(C)c1CNC(=O)c1cc(C)n(Cc2ccc(Cn3ccccc3=O)cc2)c1C` [Example 94, 2,5-Dimethyl-1-[4-(2-oxo-2H-pyridin-1-ylmethyl)-benzyl]-1H-pyrrole-3-carboxylic acid 4-aminomethyl-2,6-dimethyl-benzylamide], the IC50 stood at 11 nM on Human plasma kallikrein (setting [1]) and 10900 nM on Human KLK1.

As to `Cc1cc(C(=O)N[C@H](C)c2ccc(CN)cc2)c(C)n1Cc1csc(-c2ccccc2)n1` [Example 42, 2,5-Dimethyl-1-(2-phenyl-thiazol-4-ylmethyl)-1H-pyrrole-3-carboxylic acid [(R)-1-(4-aminomethyl-phenyl)-ethyl]-amide], the IC50 was 953 nM at Human plasma kallikrein (setting [1]) and greater than 10000 nM at Human KLK1.

Turning to `Cc1cc(C(=O)NCc2ccc(CN)cc2)c(C)n1Cc1cc(-c2ccncc2)cs1` [Example 14, 2,5-Dimethyl-1-(4-pyridin-4-yl-thiophen-2-ylmethyl)-1H-pyrrole-3-carboxylic acid 4-aminomethyl-benzylamide], the figures for the IC50 on Human plasma kallikrein (setting [1]) and against Human KLK1 were 2300 nM and 6370 nM, respectively.

With `Cc1cc(C(=O)NCc2ccc(CN)cc2)c(C)n1Cc1cccs1` [Example 20, 2,5-Dimethyl-1-thiophen-2-ylmethyl-1H-pyrrole-3-carboxylic acid 4-amidomethyl-benzylamide], the IC50 on Human plasma kallikrein (setting [1]) worked out at 4950 nM; against Human KLK1, 2400 nM.

Consider `Cc1cc(C(=O)NCc2ccc(CN)cc2)c(C)n1Cc1csc(-c2cccnc2)n1` [Example 31, 2,5-Dimethyl-1-(2-pyridin-3-yl-thiazol-4-ylmethyl)-1H-pyrrole-3-carboxylic acid 4-aminomethyl-benzylamide], for which the results for the IC50 at Human plasma kallikrein (setting [1]) and at Human KLK1 were 251 nM and 8080 nM, respectively.

As for `CCOc1ccc(Cn2c(C)cc(C(=O)NCc3ccc(CN)cc3)c2C)cc1` [Example 59, 1-(4-Ethoxy-benzyl)-2,5-dimethyl-1H-pyrrole-3-carboxylic acid 4-aminomethyl-benzylamide], the figures for the IC50 on Human plasma kallikrein (setting [1]) and against Human KLK1 were 2740 nM and greater than 10000 nM, respectively.

In the case of `Cc1ccc(-c2nc(Cn3c(C)cc(C(=O)NCc4ccc(CN)cc4)c3C)cs2)cc1` [Example 35, 2,5-Dimethyl-1-(2-p-tolyl-thiazol-4-ylmethyl)-1H-pyrrole-3-carboxylic acid 4-aminomethyl-benzylamide], the IC50 at Human plasma kallikrein (setting [1]) is 2100 nM; on Human KLK1 it was greater than 10000 nM.

`CCn1c(C(=O)NCc2c(C)cc(CN)cc2C)cc(C)c1Cc1ccc(Cn2ccccc2=O)cc1` [Example 95, 1-Ethyl-4-methyl-5-[4-(2-oxo-2H-pyridin-1-ylmethyl)-benzyl]-1H-pyrrole-2-carboxylic acid 4-aminomethyl-2,6-dimethyl-benzylamide]: the results for the IC50 on Human plasma kallikrein (setting [1]) and against Human KLK1 were 16 nM and 3900 nM, respectively.

Consider `Cc1cccc(-c2nc(Cn3c(C)cc(C(=O)NCc4ccc(CN)cc4)c3C)cs2)c1` [Example 30, 2,5-Dimethyl-1-(2-m-tolyl-thiazol-4-ylmethyl)-1H-pyrrole-3-carboxylic acid 4-aminomethyl-benzylamide], for which the IC50 was 773 nM on Human plasma kallikrein (setting [1]) and greater than 10000 nM on Human KLK1.

Consider `Cc1cnn(Cc2ccc(Cn3cc(C(=O)NCc4c(C)cc(CN)cc4C)c(C)n3)cc2)c1` [Example 114, 3-Methyl-1-[4-(4-methyl-pyrazol-1-ylmethyl)-benzyl]-1H-pyrazole-4-carboxylic acid 4-aminomethyl-2,6-dimethyl-benzylamide], for which the IC50 is 0.6 nM at Human plasma kallikrein (setting [1]) and greater than 10000 nM against Human KLK1.

For the compound `CCn1c(C(=O)NCc2ccc(C3(N)CC3)cc2)cc(C)c1Cc1ccc(Cn2cc(C)cn2)cc1` [Example 100, 1-Ethyl-4-methyl-5-[4-(4-methyl-pyrazol-1-ylmethyl)-benzyl]-1H-pyrrole-2-carboxylic acid 4-(1-amino-cyclopropyl)-benzylamide], the values for the IC50 at Human plasma kallikrein (setting [1]) and on Human KLK1 were 2320 nM and greater than 10000 nM, respectively.

Regarding `Cc1cc(C(=O)NCc2ccc(CN)cc2)c(-c2ccccc2)n1Cc1ccccc1` [Example 57, 1-Benzyl-5-methyl-2-phenyl-1H-pyrrole-3-carboxylic acid 4-aminomethyl-benzylamide], the results for the IC50 on Human plasma kallikrein (setting [1]) and against Human KLK1 were 7180 nM and greater than 10000 nM, respectively.

For `Cc1cc(C(=O)NCc2ccc(CN)cc2Cl)c(C)n1Cc1csc(-c2ccccc2)n1` [Example 49, 2,5-Dimethyl-1-(2-phenyl-thiazol-4-ylmethyl)-1H-pyrrole-3-carboxylic acid 4-aminomethyl-2-chloro-benzylamide], the results for the IC50 at Human plasma kallikrein (setting [1]) and on Human KLK1 were 89 nM and greater than 10000 nM, respectively.

In the case of `Cc1cnn(Cc2ccc(Cn3cnc(C(=O)NCc4ccc(C5(N)CC5)cc4)c3)cc2)c1` [Example 105, 1-[4-(4-Methyl-pyrazol-1-ylmethyl)-benzyl]-1H-imidazole-4-carboxylic acid 4-(1-amino-cyclopropyl)-benzylamide], the 50% inhibitory concentration (IC50) on Human plasma kallikrein (setting [1]) is 941 nM; against Human KLK1, greater than 10000 nM.

Regarding `Cc1cc(C(=O)NCc2ccc(CN)cc2)c(C)n1Cc1csc(Cc2ccccc2)n1` [Example 38, 1-(2-Benzyl-thiazol-4-ylmethyl)-2,5-dimethyl-1H-pyrrole-3-carboxylic acid 4-aminomethyl-benzylamide], the figures for the IC50 on Human plasma kallikrein (setting [1]) and on Human KLK1 were 2310 nM and greater than 10000 nM, respectively.

In the case of `Cc1cc(C(=O)NCc2ccc(CN)cc2)c(C)n1Cc1csc(-c2cccc(Cl)c2)n1` [Example 27, 2,5-Dimethyl-1-[2-(3-chlorophenyl)-thiazol-4-ylmethyl]-1H-pyrrole-3-carboxylic acid 4-aminomethyl-benzylamide], the figures for the IC50 on Human plasma kallikrein (setting [1]) and at Human KLK1 were 848 nM and greater than 10000 nM, respectively.

Take `CCCn1c(C(=O)NCc2ccc(CN)cc2)cc(C)c1Cc1ccccc1` [Example 78, 5-Benzyl-4-methyl-1-propyl-1H-pyrrole-2-carboxylic acid 4-aminomethyl-benzylamide]: the IC50 at Human plasma kallikrein (setting [1]) is 4130 nM; on Human KLK1, greater than 10000 nM.

For the compound `Cc1cc(CNC(=O)c2cc(C)n(Cc3csc(-c4ccccc4)n3)c2C)ccc1CN` [Example 46, 2,5-Dimethyl-1-(2-phenyl-thiazol-4-ylmethyl)-1H-pyrrole-3-carboxylic acid 4-aminomethyl-3-methyl-benzylamide], the IC50 on Human plasma kallikrein (setting [1]) turned out to be 1160 nM; at Human KLK1, 4890 nM.

In the case of `Cc1cc(C(=O)NCc2ccc(CN)cc2)[nH]c1Cc1ccccc1` [Example 76, 5-Benzyl-4-methyl-1H-pyrrole-2-carboxylic acid 4-aminomethyl-benzylamide], the IC50 is 8770 nM at Human plasma kallikrein (setting [1]) and greater than 10000 nM at Human KLK1.
